Measurements published in patent publication US11666561B2, “Compounds for use in regulating follicle maturation” (AARHUS UNIVERSITET, priority 2017, dated 2023).

B1: BI 836845: humanised IgG1 monoclonal antibody that binds to and neutralises IGF-1 and IGF-2 (antibody, chains of the INN, looked up, V domains shown)
VH: QVELVESGGGLVQPGGSLRLSCAASGFTFTSYWMSWVRQAPGKGLELVSSITSYGSFTYYADSVKGRFTISRDNSKNTLYLQMNSLRAEDTAVYYCARNMYTHFDSWGQGTLVTVSS
VL: DIVLTQPPSVSGAPGQRVTISCSGSSSNIGSNSVSWYQQLPGTAPKLLIYDNSKRPSGVPDRFSGSKSGTSASLAITGLQSEDEADYYCQSRDTYGYYWVFGGGTKLTVL
B2: MM-141: tetravalent bispecific antibody targeting IGF-1 receptor and ERBB3 (antibody, chains of the INN, looked up, V domains shown)
VH: EVQLLQSGGGLVQPGGSLRLSCAASGFMFSRYPMHWVRQAPGKGLEWVGSISGSGGATPYADSVKGRFTISRDNSKNTLYLQMNSLRAEDTAVYYCAKDFYQILTGNAFDYWGQGTTVTVSS
VL: DIQMTQSPSSLSASLGDRVTITCRASQGISSYLAWYQQKPGKAPKLLIYAKSTLQSGVPSRFSGSGSGTDFTLTISSLQPEDSATYYCQQYWTFPLTFGGGTKVEIK
VH2: QVQLVQSGGGLVQPGGSLRLSCAASGFTFDDYAMHWVRQAPGKGLEWVAGISWDSGSTGYADSVKGRFTISRDNAKNSLYLQMNSLRAEDTALYYCARDLGAYQWVEGFDYWGQGTLVTVSS
VL2: SYELTQDPAVSVALGQTVRITCQGDSLRSYYASWYQQKPGQAPVLVIYGKNNRPSGIPDRFSGSTSGNSASLTITGAQAEDEADYYCNSRDSPGNQWVFGGGTKVTVL

Tested on: primordial-to-primary follicle transition
Assay: In vitro organ culture of mouse ovaries with compound, H&E histology and counting of primordial, primary and secondary follicles
Settings: for Effect: marked (ongoing)
Method: Ovaries obtained from mice were washed twice with culture medium. Antagonists or agonists to be tested were dissolved in suitable solvents and added to the medium. As a control medium comprising solvent without the antagonist or agonist was used. One of the ovaries was cultured in a control medium and another was cultured with the antagonist or agonist. The tested antagonists or agonists and their concentrations are outlined in table 2.
Ovaries were incubated with antagonist at 37° C. and 5% CO2 for 24 and 96 hours, respectively (see table 3).
Cultures ovaries were fixed, embedded in paraffin and sliced microscopy. The sectioned ovaries were stained with hematoxylin and eosin (H&E) to visualize the morphology of the ovary by microscopy.
The number of primordial, primary and secondary follicles was determined, and it was determined whether the antagonist or agonist was capable of regulating folliculogenesis.
C57BL/6j×CBA F1 hybrid mice (Janvier Labs, France) were housed and bred in the animal facilities at Department of Biomedicine, Aarhus University. Animals were housed in a 12:12 h controlled light-dark environment and were provided with food and water ad libitum. 7-day-old female pups were used for the study.
Pups were sacrificed and ovaries were excised. Using a stereomicroscope MZ75 (Leica Microsystems, Germany), excess tissue was removed. During the dissection, ovaries were kept at 37° C. in culture medium: aMEM (Thermo Fisher) supplemented with 10% FBS (Thermo Fisher), 100 mIU/mL of FSH (Sigma-Aldrich), 100 IU/mL penicillin (Thermo Fisher), 100 μg/mL streptomycin (Thermo Fisher) and 1% Insulin-Transferrin-Selenium (Thermo Fisher). Isolated ovaries were transferred into well inserts (PET membrane ThinCert, 0.4 μm-pore size; Greiner bio-one) in 24-well plates (Tissue culture treated, cell culture plates; Costar). 200-300 μL of culture medium was added to the well below the insert and up to two ovaries were placed on the membrane of each insert. The culture medium was supplemented with different concentrations of the tested compounds; bpV(HOpic) (Sigma-Aldrich), Temsirolimus (Sigma-Aldrich), Ketotifen (Sigma-Aldrich), 3PO (Sigma-Aldrich), Dorsomorphin (Sigma-Aldrich), AICAR (Sigma-Aldrich), NCG (Sigma-Aldrich), and Dyphylline (Cayman Chemical). Up to six wells in the 24-well plate were used for inserts. Sterile dH2O was added to the rest of the wells to ensure humidity and reduce evaporation. The ovaries were cultured at 37° C., 5% CO2 for four days. 150 μL of medium was replaced every other day with fresh culture medium.
Ovaries kept in organ culture for four days were fixed for 24 hours in 4% paraformaldehyde solution at 4° C. After fixation, ovaries were dehydrated in ethanol series using 70%, 96% and 99.9% ethanol. Xylene was used as clearing agent before the ovaries were infiltrated in paraffin wax. 5 μm-sections of samples in paraffin were cut using a microtome (Cut 6062, SLEE medical, Germany). Paraffin sections were mounted on glass slides, paraffin was melted at 60° C., and the samples were stained with hematoxylin and eosin (using standard protocols).
The samples were deparaffinized by incubating in xylene for 2×15 min. and subsequently rehydrated in series of ethanol; 3×2 min. in 99.9% ethanol, 2 min. in 96% ethanol, and 2 min. in 70% ethanol. The samples were then rinsed in dH2O, stained in hematoxylin for 40 sec., rinsed in dH2O for 5 min., and stained in eosin for 46 sec. The samples were dehydrated in ethanol: 2×2 min. in 96% ethanol, 2×2 min in 99.9% ethanol, and finally cleared up in xylene for at least 30 min before mounting the samples using Eukitt mounting medium (Sigma-Aldrich) and cover glass.
The number of follicles at each developmental stage was counted using an inverted research microscope (DM14000B, Leica Microsystems, Germany). The follicles of every 3rd to 4th section of each ovary were counted and the distribution of follicles in the different stages in percentage was determined.

Row | Molecule | Effect (Table 1) | Effect (Table 2) | effect on primordial-to-primary follicle transition / primordial follicle activation (in vitro cultured mouse ovaries, concentration not given)
1 | CC(C)c1cc(CNc2nc(Nc3cc(C4CC4)[nH]n3)cc(N3CCN(C)CC3)n2)on1 [XL228, 4-N-(5-cyclopropyl-1H-pyrazol-3-yl)-6-(4-methylpiperazin-1-yl)-2-N-[(3-propan-2-yl-1,2-oxazol-5-yl)methyl]pyrimidine-2,4-diamine] | promotes | promotes | –
2 | O=C1C=C/C(=C(/[O-])O)N=C1.[K+].[O-][O-].[O-][O-].[O]=[V] [bpV(HOpic)] | – | – | increase the rate of primordial-to-primary transition
3 | Cixutumumab: fully human IgG1 monoclonal antibody directed against the human insulin-like growth factor-1 receptor | promotes | promotes | –
4 | PDGF-AA: peptide, expressed in E coli, SEQ ID NO: 1, binds and activates PDGFRA | promotes | promotes | –
5 | B1 | promotes | promotes | –
6 | B2 | promotes | promotes | –
